Molecular target: T1, AT1R-CXCR2 heteromer (Homo sapiens, UniProt P25025+P30556)
T1 sequence (P25025 1-360): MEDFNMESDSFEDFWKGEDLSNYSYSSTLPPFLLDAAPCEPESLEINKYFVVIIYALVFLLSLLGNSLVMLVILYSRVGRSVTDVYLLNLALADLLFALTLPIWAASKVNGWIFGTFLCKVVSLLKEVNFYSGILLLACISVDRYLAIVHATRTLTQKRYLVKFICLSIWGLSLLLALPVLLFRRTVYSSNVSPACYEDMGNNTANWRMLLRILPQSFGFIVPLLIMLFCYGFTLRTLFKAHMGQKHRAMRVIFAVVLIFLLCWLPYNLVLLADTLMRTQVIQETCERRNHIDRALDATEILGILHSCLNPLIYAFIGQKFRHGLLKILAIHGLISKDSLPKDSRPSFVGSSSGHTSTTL
T1 sequence (P30556 1-359): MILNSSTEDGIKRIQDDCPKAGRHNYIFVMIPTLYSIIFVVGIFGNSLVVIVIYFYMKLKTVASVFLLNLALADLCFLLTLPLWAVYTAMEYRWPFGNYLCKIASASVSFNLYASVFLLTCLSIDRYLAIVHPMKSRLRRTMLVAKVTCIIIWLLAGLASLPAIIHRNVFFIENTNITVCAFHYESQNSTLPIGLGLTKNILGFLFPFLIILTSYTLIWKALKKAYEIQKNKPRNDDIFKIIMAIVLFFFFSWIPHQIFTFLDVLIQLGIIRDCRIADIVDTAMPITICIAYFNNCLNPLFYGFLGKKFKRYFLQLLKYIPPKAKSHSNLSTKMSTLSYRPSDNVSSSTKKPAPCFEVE
Assay: BRET Gi coupling (Receptor-HIT), CXCR2/Rluc8, Venus/mGsi and HA-AT1R, HEK293FT cells
Format: cell-based
Method: HEK293FT cells were seeded in 6-well plates at a density of approximately 700,000 cells/well and maintained at 37° C., 5% CO2 in Complete Media (DMEM containing 0.3 mg/ml glutamine, 100 IU/ml penicillin and 100 μg/ml streptomycin (Gibco/Thermo Fisher)) supplemented with 10% fetal calf serum (FCS; Bovogen). […] BRET measurements were taken at 37° C. using the LUMlstarTM or CLARIOstarTM (BMG Labtech). Filtered light emissions were measured for 1 s in each of the 'donor wavelength window' (460-490 nm for LUMlstarTM or 410-490 nm for CLARIOstarTM) and 'acceptor wavelength window' (520-550 nm for LUMlstarTM or 520-620 nm for CLARIOstarTM). The BRET signal observed between interacting proteins is normalized by subtracting the background BRET ratio. This can be done in one of two ways (see Pfleger et al. (2006) Cell Signal 18:1664-1670; Pfleger et al. (2006) Nat Protoc 1:336-344): 1) the ratio of the 520-550 nm or 520-620 nm emission over the 460-490 nm or 410-490 nm emission for a cell sample containing only the donor construct is subtracted from the same ratio for a sample containing the interacting acceptor and donor fusion proteins; 2) the ratio of the 520-550 nm or 520-620 nm emission over the 460-490 nm or 410-490 nm emission for a cell sample treated with vehicle is subtracted from the same ratio for a second aliquot of the same cell sample treated with ligand. […]

## Angiotensin II [AngII]
  ligand-induced BRET signal, CXCR2/Rluc8 and Venus/mGsi: approximately 0.05
